From patent publication US20250248979A1, “NOVEL GPX4 INHIBITORS AND USES THEREOF” (THE TRUSTEES OF COLUMBIA UNIVERSITY IN THE CITY OF NEW YORK, priority 2022, published 2025)
In brackets after ≈: the same amount, converted by molar mass. Read-outs that look alike come from different tables or passages of the source.

How the values were obtained:
[1] = Kinetic aqueous solubility
[2] = in vitro; assay type: in vitro ADME, human
Method: (§1) […]. The incubation timepoints measured were 0, 5, 10, 15, 30, and 45 minutes. All samples were prepared in duplicate and analyzed by LC-MS/MS.

[3] = in vitro; assay type: in vitro ADME, mouse
Method: as §1

[4] = target: T1, GPX4 (Homo sapiens, UniProt P36969); test: GPX4 activity assay in cell lysates (NADPH-coupled); assay type: biochemical; design: endogenous in cells; host or cells: A-673 cell lysate; settings: for GPX4% inhibition at 200 (μM) / GPX4 inhibition: 200 μM
T1 sequence (P36969 1-170 isoform P36969-2): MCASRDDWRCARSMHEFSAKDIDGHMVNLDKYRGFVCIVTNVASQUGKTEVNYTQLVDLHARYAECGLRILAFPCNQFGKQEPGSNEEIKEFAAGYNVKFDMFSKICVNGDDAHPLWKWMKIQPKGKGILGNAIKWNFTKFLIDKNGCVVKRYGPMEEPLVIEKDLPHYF
Method in brief: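 Native GPX4 in lysates of A-673 cells grown with 20 nM sodium selenite; lysate preincubated with compound 45 min at 37 °C in pH 8.0 buffer with 3 mM GSH, 0.5 mM NADPH and glutathione reductase. Reaction started with phosphatidylcholine hydroperoxide; NADPH consumption followed at 340 nm over 25 min; triplicates.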

[5] = system: Huh7 cells; test: Cellular dose response assay, Huh7; assay type: cell-based, human; settings: Table 7
Source text: (§2) HT-1080 (human [Homo sapiens] […] fibrosarcoma), A-673 (human [Homo sapiens] […] Ewing's sarcoma), and SK-HEP-1 (human [Homo sapiens] […] hepatic adenocarcinoma), cells were obtained from ATCC. Huh7 (human [Homo sapiens] […] hepatocellular carcinoma), HLF (human [Homo sapiens] […] hepatocellular carcinoma), HepG2 (human [Homo sapiens] […] hepatocellular carcinoma), cells were obtained from the Cancer Cell Bank at Columbia University Irving Medical Center. HT-1080, A-673, Huh-7, and HLF cells were grown in Dulbecco's Modified Eagle Medium (DMEM) supplemented with 10% heat inactivated fetal bovine serum (HI-FBS), 1% non-essential amino acids, and 1% penicillin streptomycin. HepG2 and SK-HEP-1 cells were grown in Eagle's Minimum Essential Medium (EMEM) supplemented with 10% HI-FBS, and 1% penicillin-streptomycin. All cells were cultured at 37° C. and 5% CO2.
(§3) HT-1080, HepG2, Huh7, HLF, and SK-HEP-1 cells were seeded into opaque white 384-well plates at 1500 cells per well then incubated at 37° C. with 5% CO2 overnight. The next day, compounds of interest were dissolved in DMSO and 12-point 2-fold dilution series were prepared with and without Fer-1. Cells were treated in triplicate (final DMSO concentration of 0.4% in all wells, including DMSO-only control wells) and incubated for a further 48 hours at 37° C. and 5% CO2. Cell viability was evaluated using CellTiter-Glo (Promega G7573) and luminescence was recorded on a Victor 5 plate reader. Data were analyzed in GraphPad Prism 9 and error bars represent standard deviation values for three technical replicates in a representative experiment.

[6] = system: HepG2 cells; test: Cellular dose response assay, HepG2; assay type: cell-based, human; settings: Table 7
Source text: as §2, §3

[7] = system: SK-HEP-1 cells; test: Cellular dose response assay, SK-HEP-1; assay type: cell-based, human; settings: Table 7
Source text: as §2, §3

[8] = system: HLF cells; test: Cellular dose response assay, HLF; assay type: cell-based, human; settings: Table 7
Source text: as §2, §3

[9] = system: HT-1080 cells; test: Cellular dose response assay, HT-1080 with and without Fer-1; assay type: cell-based, human; settings: for Selectivity: ferroptosis selectivity, HT1080 + Fer-1 vs HT1080
Method in brief: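 Dose-response over 12 twofold concentrations, 48 h exposure, 0.4% DMSO, in cells seeded at 1500 per well overnight. HT-1080 also run plus Fer-1. Endpoint: CellTiter-Glo luminescence.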

[10] = generation 1, mean ± s.d., n = 3
[11] = compounds alone, read-out: IC50 (uM) Huh7^a
[12] = with fer-1, read-out: IC50 (uM) Huh7^b
[13] = compounds alone, read-out: IC50 (uM) HEPG2^a
[14] = with fer-1, read-out: IC50 (uM) HEPG2^b
[15] = compounds alone, read-out: IC50 (uM) SKHEP1^a
[16] = with fer-1, read-out: IC50 (uM) SKHEP1^b
[17] = compounds alone, read-out: IC50 (uM) HLF^a
[18] = with fer-1, read-out: IC50 (uM) HLF^b
[19] = compounds alone, Table 7, read-out: IC50 (uM) HT1080^a
[20] = with fer-1, Table 7, read-out: IC50 (uM) HT1080^b
[21] = 1% DMSO, Phosphate Buffered Saline pH 7.4, 1 hour, ambient, UV/Vis absorbance
[22] = HT1080 + Fer-1, read-out: IC50 (uM) HT1080 + Fer-1
[23] = HT1080, without Fer-1, read-out: IC50 (uM) HT1080

Row | Compound | Solubility ([1]; aqueous solubility, Table 9) | Microsome Stability t1/2 (min) human ([2]; human, microsomes) | Microsome Stability t1/2 (min) mouse ([3]; mouse, microsomes) | IC50 [5, 11] | IC50 [5, 12] | IC50 [6, 13] | IC50 [6, 14] | IC50 [7, 15] | IC50 [7, 16] | IC50 [8, 17] | IC50 [8, 18] | IC50 [9, 19] | IC50 [9, 20] | GPX4% inhibition at 200 (μM) ([4]; generation 2) | other results
1 | COc1ccc(N(C(=O)CCl)C(C(=O)NCCc2ccccc2)c2cccs2)cc1Cl (stereo not shown) [ML162, reference compound] | 3.8 µM (≈ 1.81 µg/mL) | – | – | – | – | – | – | – | – | – | – | – | – | – | Microsome Stability t1/2 (min) human ([2]; human liver microsomes): 0.9 min; Microsome Stability t1/2 (min) mouse ([3]; mouse liver microsomes): 1.5 min
2 | CC(C)(COC(=O)CBr)NC(=O)c1cc2cc([N+](=O)[O-])ccc2[nH]1 [QW-171] | 56 µM (≈ 22.3 µg/mL) | 187 min | 283 min | – | – | – | – | – | – | – | – | – | – | – | GPX4% inhibition at 200 (μM) [4, 10]: 83.9 ± 16.8%
3 | COc1ccc2cc(C(=O)NCC(C)(C)COC(=O)CBr)[nH]c2c1 [QW-303] | – | – | – | 6.3 µM | 16.8 µM | 4.7 µM | 12.7 µM | 5.1 µM | 17.1 µM | 2.5 µM | 5.7 µM | 4 µM | 6.1 µM | – | GPX4% inhibition at 200 (μM) [4, 10]: 88.7 ± 2.3%
4 | O=C(CBr)OCCCNC(=O)c1cc2cc(Cl)ccc2[nH]1 [QW-305] | – | – | – | 3.8 µM | 26.1 µM | 1.9 µM | 7.2 µM | 2.3 µM | 10.9 µM | 0.7 µM | 4.3 µM | 1.9 µM | 5 µM | – | GPX4% inhibition at 200 (μM) [4, 10]: 88.6 ± 3.1%
5 | Cn1nc(C(=O)NC(C)(C)COC(=O)CCl)c2ccccc21 [QW-312] | 98 µM (≈ 31.7 µg/mL) | 2.9 min | 1.7 min | 4.2 µM | 122 µM | 26.2 µM | 180 µM | 28.4 µM | 202 µM | 2.5 µM | 58.1 µM | 5.4 µM | 76.3 µM | 95.8 ± 4.0% | GPX4% inhibition at 20 (μM) ([4]; generation 2): 72.5 ± 6.7%; GPX4 inhibition [4]: complete inhibition
6 | CC(C)(COC(=O)CCl)NC(=O)c1n[nH]c2cc(Br)ccc12 [QW-313] | 47 µM (≈ 18.3 µg/mL) | 9.7 min | 12.1 min | 17 µM | 58.2 µM | 12.8 µM | 63.1 µM | 47 µM | 63.7 µM | – | – | 20.4 µM | 58.8 µM | 97.6 ± 2.5% | GPX4% inhibition at 20 (μM) ([4]; generation 2): 53.8 ± 12.1%; GPX4 inhibition [4]: complete inhibition
7 | CC(C)(COC(=O)CCl)NC(=O)c1c[nH]c2cc(Br)ccc12 [QW-316] | 71 µM (≈ 27.5 µg/mL) | 24 min | 6 min | – | – | – | – | – | – | – | – | – | – | – | GPX4% inhibition at 200 (μM) [4, 10]: 87.2 ± 9.2%
8 | CC(C)(COC(=O)CCl)NC(=O)c1[nH]c2ccccc2c1Br [QW-348] | – | – | – | 4.5 µM | 32.4 µM | 7.5 µM | 27.3 µM | 3.9 µM | 32.7 µM | 4.1 µM | 27.8 µM | 8.5 µM | 26 µM | – | GPX4% inhibition at 200 (μM) [4, 10]: 99.6 ± 3.2%
9 | Cn1nc(C(=O)NC(C)(C)COC(=O)CCl)c2cc(Br)ccc21 [QW-356] | – | – | – | 2.5 µM | 112 µM | 6.7 µM | 73.5 µM | 0.8 µM | 81 µM | 1.1 µM | 60.9 µM | 3.1 µM | 58.3 µM | 105.7 ± 2.5% | GPX4 inhibitory activity, result in words [4]: significant improvement on GPX4 inhibition over QW-314 and RSL3; GPX4 inhibition [4]: complete inhibition
10 | CC(C)(COC(=O)CCl)NC(=O)c1nn(-c2ccccc2)c2ccccc12 [QW-357] | – | – | – | 3.5 µM | 58.7 µM | 9.2 µM | 55.7 µM | 3.8 µM | 50 µM | 2.9 µM | 36.4 µM | 9.1 µM | 40.1 µM | 104.8 ± 1.9% | GPX4 inhibition [4]: complete inhibition
11 | Cn1nc(C(=O)NC(C)(C)COC(=O)CCl)c2cccc(OC(=O)CCl)c21 [QW-360] | – | – | – | 9.1 µM | 175 µM | 24.8 µM | 40.3 µM | 3.5 µM | 44.4 µM | 6.7 µM | 27.1 µM | 12.7 µM | 46.7 µM | 101.9 ± 1.5% | GPX4 inhibition [4]: complete inhibition
12 | Cn1nc(C(=O)NC(C)(C)COC(=O)CBr)c2ccccc21 [QW-365] | – | – | – | 0.8 µM | 16.8 µM | 2.9 µM | 18.6 µM | 0.3 µM | 12.1 µM | 0.5 µM | 8.8 µM | 0.7 µM | 12.2 µM | 94.5 ± 4.5% | –
13 | COc1ccc(-c2ccc3c(C(=O)NC(C)(C)COC(=O)CCl)nn(C)c3c2)cc1 [QW-454] | 2.9 µM (≈ 1.25 µg/mL) | 1.8 min | 1.7 min | – | – | – | – | – | – | – | – | – | – | – | Solubility [1, 21]: 2.9 µM (≈ 1.25 µg/mL); GPX4% inhibition at 5 μM [4]: 86.8 ± 2.6%; IC50 [9, 22]: 11.5 µM; IC50 [9, 23]: 0.94 µM; ferroptosis induction / potency in HT-1080 cells, result in words ([9]; RSL3 as control): sub-molar range cellular activities and decreased ferroptosis selectivity; Selectivity [9]: 12.2
14 | Cn1nc(C(=O)NC(C)(C)COC(=O)CCl)c2ccc(-c3cccc(Cl)c3)cc21 [QW-458] | 6.1 µM (≈ 2.65 µg/mL) | 1.9 min | 1.9 min | – | – | – | – | – | – | – | – | – | – | – | Solubility [1, 21]: 6.1 µM (≈ 2.65 µg/mL); GPX4% inhibition at 5 μM [4]: 80.5 ± 3.0%; IC50 [9, 22]: 24 µM; IC50 [9, 23]: 2 µM; Selectivity [9]: 12
15 | COc1ccc(-c2ccc3c(C(=O)NC(C)(C)COC(=O)CCl)nn(C)c3c2)cc1C [QW-488] | 5.4 µM (≈ 2.4 µg/mL) | 1.8 min | 1.1 min | – | – | – | – | – | – | – | – | – | – | – | Solubility [1, 21]: 5.4 µM (≈ 2.4 µg/mL); GPX4% inhibition at 5 μM [4]: 87.3 ± 3.3%
16 | CC(C)Oc1ccc(-c2ccc3c(C(=O)NC(C)(C)COC(=O)CCl)nn(C)c3c2)cc1 [QW-506] | 1.7 µM (≈ 0.779 µg/mL) | 2.9 min | 1.7 min | – | – | – | – | – | – | – | – | – | – | – | Solubility [1, 21]: 1.7 µM (≈ 0.779 µg/mL); GPX4% inhibition at 5 μM [4]: 75.4 ± 3.9%
17 | C[C@]12CC[C@H]3[C@@H](CCC4=CC(=O)CC[C@@]43C)[C@@H]1CC[C@@H]2O [Testosterone, reference compound] | – | – | – | – | – | – | – | – | – | – | – | – | – | – | half-life ([2]; pH 7.4, human liver microsomes, read-out: Microsome Stability t1/2 (min) human): 9.5 min; Microsome Stability t1/2 (min) mouse ([3]; mouse liver microsomes): 5.3 min
